The source of these data is patent publication US8791107B2, “N-substituted oxazinopteridines and oxazinopteridinones” (Takeda Pharmaceutical Company Limited, priority 2011, dated 2014).

This test deals with T1, PI3Kδ (Homo sapiens, UniProt O00329).
T1 construct: The protein is full length and co-expressed with untagged PIK3R1; GST; purchased Invitrogen PV5274
T1 sequence (O00329 whole entry): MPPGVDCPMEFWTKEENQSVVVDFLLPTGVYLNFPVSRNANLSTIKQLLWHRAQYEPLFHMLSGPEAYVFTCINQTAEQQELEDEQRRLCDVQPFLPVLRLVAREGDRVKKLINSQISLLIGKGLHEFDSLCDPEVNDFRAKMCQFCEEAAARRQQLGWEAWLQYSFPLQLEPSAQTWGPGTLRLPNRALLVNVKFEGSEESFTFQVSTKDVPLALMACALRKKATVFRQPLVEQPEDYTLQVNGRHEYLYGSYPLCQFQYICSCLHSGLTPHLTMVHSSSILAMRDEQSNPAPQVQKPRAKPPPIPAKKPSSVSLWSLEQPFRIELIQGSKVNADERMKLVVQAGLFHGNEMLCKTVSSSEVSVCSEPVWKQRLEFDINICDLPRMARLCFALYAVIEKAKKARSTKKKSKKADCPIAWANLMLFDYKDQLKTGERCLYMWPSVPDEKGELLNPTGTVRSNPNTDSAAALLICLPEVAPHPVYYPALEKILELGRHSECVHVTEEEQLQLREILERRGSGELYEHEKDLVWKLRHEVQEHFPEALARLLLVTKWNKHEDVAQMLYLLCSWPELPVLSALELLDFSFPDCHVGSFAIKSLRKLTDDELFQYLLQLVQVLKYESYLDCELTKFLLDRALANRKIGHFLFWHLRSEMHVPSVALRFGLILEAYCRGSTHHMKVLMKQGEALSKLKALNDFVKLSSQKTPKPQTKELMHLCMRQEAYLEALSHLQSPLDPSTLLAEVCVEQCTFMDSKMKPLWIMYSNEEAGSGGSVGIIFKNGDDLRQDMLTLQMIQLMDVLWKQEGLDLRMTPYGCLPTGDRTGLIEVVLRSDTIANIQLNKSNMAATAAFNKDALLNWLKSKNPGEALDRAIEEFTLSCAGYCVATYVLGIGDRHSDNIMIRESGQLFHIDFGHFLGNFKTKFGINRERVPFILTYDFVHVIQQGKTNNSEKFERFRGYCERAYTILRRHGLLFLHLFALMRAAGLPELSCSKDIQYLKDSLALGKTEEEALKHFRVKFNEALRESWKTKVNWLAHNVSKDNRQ
T1 sequence (P27986 whole entry partner): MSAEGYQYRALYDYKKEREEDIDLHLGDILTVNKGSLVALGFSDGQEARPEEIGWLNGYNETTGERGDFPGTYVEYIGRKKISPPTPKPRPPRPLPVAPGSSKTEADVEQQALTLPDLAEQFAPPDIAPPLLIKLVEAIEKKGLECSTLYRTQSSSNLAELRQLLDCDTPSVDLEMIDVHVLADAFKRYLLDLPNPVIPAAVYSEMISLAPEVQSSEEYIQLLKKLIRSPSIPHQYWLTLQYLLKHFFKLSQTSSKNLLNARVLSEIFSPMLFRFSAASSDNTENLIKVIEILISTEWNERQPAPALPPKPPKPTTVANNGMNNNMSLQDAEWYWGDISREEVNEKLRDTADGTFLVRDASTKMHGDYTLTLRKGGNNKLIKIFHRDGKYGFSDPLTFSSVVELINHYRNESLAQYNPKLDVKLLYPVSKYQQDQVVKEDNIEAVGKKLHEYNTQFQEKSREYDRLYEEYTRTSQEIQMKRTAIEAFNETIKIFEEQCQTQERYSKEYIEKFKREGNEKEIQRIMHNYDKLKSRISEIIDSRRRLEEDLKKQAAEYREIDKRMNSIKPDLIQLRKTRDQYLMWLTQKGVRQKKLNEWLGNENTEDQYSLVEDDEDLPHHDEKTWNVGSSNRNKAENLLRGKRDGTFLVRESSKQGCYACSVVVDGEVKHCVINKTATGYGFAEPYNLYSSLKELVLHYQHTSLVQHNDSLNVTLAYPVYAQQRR
Nature of the test: PI3Kδ inhibition, modified PIK3CD Adapta TR-FRET assay. Format: biochemical. As to conditions: recombinant GST-tagged full length PIK3CD co-expressed with PIK3R1 (p85α); 2 μM ATP, 50 μM PIP2; read-out: PI3Kδ Inhibition (pIC50) (converted). In short, it runs like this: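 Full-length GST-PIK3CD co-expressed with p85α was run in 50 mM HEPES pH 7.5, 3 mM MgCl2, 1 mM EGTA, 100 mM NaCl, 0.03% CHAPS, 2 mM DTT, 1% DMSO, with 12-point compound titrations. Reactions at room temperature were started with solution containing 2 μM ATP and 50 μM PIP2. ADP was detected by Adapta TR-FRET (620 nm-ratioed).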
Background: In TR-FRET formats the signal depends on donor and acceptor labels being close together.
On to `CNC(=O)Nc1ccc(-c2ncc3c(n2)N2CCOC[C@H]2CN3CC(=O)NCC2CCOCC2)cc1` [Example 222, (R)-2-(2-(4-(3-methylureido)phenyl)-6a,7,9,10-tetrahydro-[1,4]oxazino[3,4-h]pteridin-5(6H)-yl)-N-((tetrahydro-2H-pyran-4-yl)methyl)acetamide], for which the IC50 is 31.6 nM.

As for `O=C(CN1C[C@@H]2COCCN2c2nc(-c3ccsc3)ncc21)NCC1CCOCC1` [Example 223, (R)—N-((tetrahydro-2H-pyran-4-yl)methyl)-2-(2-(thiophen-3-yl)-6a,7,9,10-tetrahydro-[1,4]oxazino[3,4-h]pteridin-5(6H)-yl)acetamide], the IC50 is 794 nM.

For `CC(=O)Nc1ccc(-c2ncc3c(n2)N2CCOC[C@H]2CN3CC(=O)NCC2CCOCC2)cc1` [Example 224, (R)-2-(2-(4-acetamidophenyl)-6a,7,9,10-tetrahydro-[1,4]oxazino[3,4-h]pteridin-5(6H)-yl)-N-((tetrahydro-2H-pyran-4-yl)methyl)acetamide], the IC50 was 316 nM.

`Cn1nccc1-c1ncc2c(n1)N1CCOC[C@H]1CN2CC(=O)NCC1CCOCC1` [Example 225, (R)-2-(2-(1-methyl-1H-pyrazol-5-yl)-6a,7,9,10-tetrahydro-[1,4]oxazino[3,4-h]pteridin-5(6H)-yl)-N-((tetrahydro-2H-pyran-4-yl)methyl)acetamide]: the IC50 was 1580 nM.

For the compound `O=C(CN1C[C@@H]2COCCN2c2nc(-c3ccc(CO)s3)ncc21)NCC1CCOCC1` [Example 226, (R)-2-(2-(5-(hydroxymethyl)thiophen-2-yl)-6a,7,9,10-tetrahydro-[1,4]oxazino[3,4-h]pteridin-5(6H)-yl)-N-((tetrahydro-2H-pyran-4-yl)methyl)acetamide], the IC50 is 501 nM.

With `CC(C)(O)CCCN1C[C@@H]2COCCN2c2nc(-c3cccc4[nH]ccc34)ncc21` [Example 227, (R)-5-(2-(1H-indol-4-yl)-6a,7,9,10-tetrahydro-[1,4]oxazino[3,4-h]pteridin-5(6H)-yl)-2-methylpentan-2-ol], the IC50 was 15.8 nM.

In the case of `Cc1ccc(C(N)=O)c(CN2CC3COCCN3c3nc(-c4cccc5[nH]ccc45)ncc32)c1` (centres unmarked) [Example 228, 2-((2-(1H-indol-4-yl)-6a,7,9,10-tetrahydro-[1,4]oxazino[3,4-h]pteridin-5(6H)-yl)methyl)-4-methylbenzamide], the IC50 is 158 nM.

For `O=C(Nc1ccc(-c2ncc3c(n2)N2CCOCC2C(=O)N3C2CCOCC2)cc1)NC1CC1` (centres unmarked) [Example 229, 1-cyclopropyl-3-(4-(6-oxo-5-(tetrahydro-2H-pyran-4-yl)-5,6,6a,7,9,10-hexahydro-[1,4]oxazino[3,4-h]pteridin-2-yl)phenyl)urea], the IC50 is 31.6 nM.
